Measurements published in ChEMBL document CHEMBL1201862, “PubChem BioAssay data set” (2004).
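Method: 48-hour compound exposure of cells in 96-well plates, five concentrations, linear interpolation of endpoints. GI50 = concentration required for 50% inhibition of growth.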 Active and inactive are the calls of the source. Rule as the data show it: active = GI50 up to about 1.1 µM and inactive = higher.

Assays:
Assay in all cases: NCI anticancer screen, dose series, 48 h
[1] = test system: 786-0
[2] = test system: ACHN
[3] = test system: CAKI-1
[4] = test system: DU-145
[5] = test system: HCT-15
[6] = test system: Hs-578T
[7] = test system: K562
[8] = test system: KM12
[9] = test system: MDA-MB-435
[10] = test system: MDA-N
[11] = test system: MOLT-4
[12] = test system: NCI/ADR-RES
[13] = test system: OVCAR-8
[14] = test system: SK-MEL-28
[15] = test system: TK-10
[16] = test system: EKVX
[17] = test system: SK-MEL-2
[18] = test system: UACC-257
[19] = test system: UO-31
[20] = test system: HL-60

C/C(=C\C(=N\NC(=N)N)c1ccccc1)c1ccccc1
GI50 [1]: 0.843 µM (active)
GI50 [2]: 0.2 µM (active)
GI50 [3]: 0.149 µM (active)
GI50 [4]: 0.406 µM (active)
GI50 [5]: 1.99 µM
GI50 [6]: 1.32 µM (inactive)
GI50 [7]: 1.53 µM (inactive)
GI50 [8]: 1.17 µM (inactive)
GI50 [9]: 1.24 µM (inactive)
GI50 [10]: 0.973 µM (active)
GI50 [11]: 0.261 µM (active)
GI50 [12]: 2.78 µM (inactive)
GI50 [13]: 1.24 µM (inactive)
GI50 [14]: 2.58 µM (inactive)
GI50 [15]: 1.17 µM (inactive)

Cn1c(N)c(/C=N/NC(=O)CC#N)c(=O)n(C)c1=O
GI50 [1]: > 100 µM (inactive)
GI50 [2]: > 100 µM (inactive)
GI50 [3]: > 100 µM (inactive)
GI50 [4]: > 100 µM (inactive)
GI50 [16]: > 100 µM (inactive)
GI50 [5]: > 100 µM
GI50 [6]: > 100 µM (inactive)
GI50 [8]: > 100 µM (inactive)
GI50 [9]: > 100 µM (inactive)
GI50 [10]: > 100 µM (inactive)
GI50 [11]: > 100 µM (inactive)
GI50 [12]: > 100 µM (inactive)
GI50 [13]: > 100 µM (inactive)
GI50 [14]: > 100 µM (inactive)
GI50 [17]: > 100 µM (inactive)
GI50 [15]: > 100 µM (inactive)
GI50 [18]: > 100 µM (inactive)
GI50 [19]: > 100 µM (inactive)

CCCCC1C=Cn2c(=O)oc3c(OC(C)C)c(OC(C)C)c(O)c1c32 (centres undefined)
GI50 [1]: 20 µM (inactive)
GI50 [2]: 36.6 µM (inactive)
GI50 [3]: 15.1 µM (inactive)
GI50 [4]: 14.8 µM (inactive)
GI50 [16]: 29.9 µM (inactive)
GI50 [5]: 14.6 µM
GI50 [20]: 4.56 µM (inactive)
GI50 [6]: 18.3 µM (inactive)
GI50 [8]: 14.4 µM (inactive)
GI50 [9]: 12.5 µM (inactive)
GI50 [10]: 20.9 µM (inactive)
GI50 [11]: 6.1 µM (inactive)
GI50 [13]: 14.9 µM (inactive)
GI50 [14]: 13.6 µM (inactive)
GI50 [17]: 15.3 µM (inactive)
GI50 [15]: 16.3 µM (inactive)
GI50 [18]: 15.6 µM (inactive)
GI50 [19]: 13.6 µM (inactive)

Cc1[nH]n(C2=NCCN2)c(=O)c1Cc1ccccc1
GI50 [1]: > 100 µM (inactive)
GI50 [2]: > 100 µM (inactive)
GI50 [3]: > 100 µM (inactive)
GI50 [16]: > 100 µM (inactive)
GI50 [5]: > 100 µM
GI50 [20]: > 100 µM (inactive)
GI50 [6]: > 100 µM (inactive)
GI50 [7]: > 100 µM (inactive)
GI50 [8]: > 100 µM (inactive)
GI50 [9]: > 100 µM (inactive)
GI50 [10]: > 100 µM (inactive)
GI50 [11]: > 100 µM (inactive)
GI50 [12]: > 100 µM (inactive)
GI50 [13]: > 100 µM (inactive)
GI50 [17]: > 100 µM (inactive)
GI50 [15]: > 100 µM (inactive)
GI50 [18]: > 100 µM (inactive)
GI50 [19]: > 100 µM (inactive)

Cc1ccc(C)n1-n1c(-c2ccccc2)n[nH]c1=O
GI50 [1]: > 100 µM (inactive)
GI50 [2]: > 100 µM (inactive)
GI50 [3]: > 100 µM (inactive)
GI50 [4]: > 100 µM (inactive)
GI50 [16]: > 100 µM (inactive)
GI50 [5]: > 100 µM
GI50 [6]: > 100 µM (inactive)
GI50 [7]: 53.7 µM (inactive)
GI50 [8]: 34.3 µM (inactive)
GI50 [9]: 21.2 µM (inactive)
GI50 [10]: 24.8 µM (inactive)
GI50 [11]: > 100 µM (inactive)
GI50 [12]: > 100 µM (inactive)
GI50 [13]: > 100 µM (inactive)
GI50 [14]: > 100 µM (inactive)
GI50 [17]: > 100 µM (inactive)
GI50 [15]: > 100 µM (inactive)
GI50 [18]: > 100 µM (inactive)
GI50 [19]: > 100 µM (inactive)

O=c1[nH]c(=O)n(C2CC(O)C(CO)O2)c2nc3cc4ccccc4cc3nc12 (centres undefined)
GI50 [1]: > 100 µM (inactive)
GI50 [2]: > 100 µM (inactive)
GI50 [3]: > 100 µM (inactive)
GI50 [4]: > 100 µM (inactive)
GI50 [16]: > 100 µM (inactive)
GI50 [5]: > 100 µM
GI50 [6]: > 100 µM (inactive)
GI50 [7]: > 100 µM (inactive)
GI50 [8]: > 100 µM (inactive)
GI50 [9]: > 100 µM (inactive)
GI50 [10]: > 100 µM (inactive)
GI50 [11]: 61.7 µM (inactive)
GI50 [12]: > 100 µM (inactive)
GI50 [13]: 54.3 µM (inactive)
GI50 [14]: > 100 µM (inactive)
GI50 [17]: > 100 µM (inactive)
GI50 [15]: > 100 µM (inactive)
GI50 [18]: > 100 µM (inactive)
GI50 [19]: > 100 µM (inactive)

O=[N+]([O-])c1cccc([N+](=O)[O-])c1Cl
GI50 [1]: 26.4 µM (inactive)
GI50 [2]: 14.7 µM (inactive)
GI50 [3]: 3.18 µM (inactive)
GI50 [4]: 2.86 µM (inactive)
GI50 [16]: 20.3 µM (inactive)
GI50 [5]: 12.1 µM
GI50 [20]: 2.82 µM (inactive)
GI50 [6]: 27 µM (inactive)
GI50 [7]: 5.71 µM (inactive)
GI50 [8]: 11.1 µM (inactive)
GI50 [9]: 17.9 µM (inactive)
GI50 [11]: 3.56 µM (inactive)
GI50 [12]: 21.7 µM (inactive)
GI50 [13]: 16.4 µM (inactive)
GI50 [14]: 21.1 µM (inactive)
GI50 [17]: 21.8 µM (inactive)
GI50 [15]: 21.9 µM (inactive)
GI50 [18]: 11 µM (inactive)
GI50 [19]: 1.32 µM (inactive)

COC(=O)CNC(=O)c1cc(C)cc2c1Oc1c(cc(C)cc1C(=O)NCC(=O)OC)S2
GI50 [1]: 39.4 µM (inactive)
GI50 [2]: 25.6 µM (inactive)
GI50 [3]: > 100 µM (inactive)
GI50 [4]: 45.4 µM (inactive)
GI50 [16]: > 100 µM (inactive)
GI50 [5]: 53.1 µM
GI50 [6]: 65.6 µM (inactive)
GI50 [7]: > 100 µM (inactive)
GI50 [8]: 81.7 µM (inactive)
GI50 [9]: > 100 µM (inactive)
GI50 [10]: > 100 µM (inactive)
GI50 [11]: 62.2 µM (inactive)
GI50 [12]: > 100 µM (inactive)
GI50 [13]: > 100 µM (inactive)
GI50 [14]: 47.8 µM (inactive)
GI50 [17]: > 100 µM (inactive)
GI50 [15]: > 100 µM (inactive)
GI50 [18]: 49.5 µM (inactive)
